Publication PMC4086246 (Journal of cellular biochemistry, 2014)
Numbering of substitutions follows the chain as printed.

Experiments:
[1] = biological target: T1, ABCG2 (Homo sapiens, UniProt Q9UNQ0); assay: inhibition of […]-IAAP photoaffinity labeling in membranes; type: binding
T1 sequence (Q9UNQ0 1-655): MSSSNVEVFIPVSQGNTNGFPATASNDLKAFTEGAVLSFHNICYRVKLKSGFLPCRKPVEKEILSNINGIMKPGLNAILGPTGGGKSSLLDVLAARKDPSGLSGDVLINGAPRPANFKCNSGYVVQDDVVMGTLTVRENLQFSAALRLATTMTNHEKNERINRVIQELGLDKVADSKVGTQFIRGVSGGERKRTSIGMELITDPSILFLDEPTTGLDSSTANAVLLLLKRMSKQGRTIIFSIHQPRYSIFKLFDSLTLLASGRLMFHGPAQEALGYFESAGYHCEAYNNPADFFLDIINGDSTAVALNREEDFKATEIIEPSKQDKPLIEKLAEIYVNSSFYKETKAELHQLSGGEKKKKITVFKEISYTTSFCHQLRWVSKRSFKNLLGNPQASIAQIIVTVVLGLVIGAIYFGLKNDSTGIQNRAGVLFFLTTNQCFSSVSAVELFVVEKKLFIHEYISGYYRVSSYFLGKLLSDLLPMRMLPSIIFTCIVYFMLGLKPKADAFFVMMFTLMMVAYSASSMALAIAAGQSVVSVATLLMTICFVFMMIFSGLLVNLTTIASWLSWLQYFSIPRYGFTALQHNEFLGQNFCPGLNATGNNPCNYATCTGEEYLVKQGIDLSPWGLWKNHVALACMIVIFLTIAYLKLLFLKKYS

[2] = biological target: T2, ABCG2 (Homo sapiens, UniProt Q9UNQ0, R482G); assay: [3H]-mitoxantrone accumulation in transfected cells; type: cell-based
T2 sequence (Q9UNQ0 1-655 R482G): T1 sequence (Q9UNQ0 1-655) with R482G

[3] = biological target: T3, ABCG2 (Homo sapiens, UniProt Q9UNQ0, R482T); assay: as above; type: cell-based
T3 sequence (Q9UNQ0 1-655 R482T): T1 sequence (Q9UNQ0 1-655) with R482T

C[C@@H]1COC(Nc2ccc3ncnc(Nc4ccc(OCc5nccs5)c(Cl)c4)c3c2)=N1 [ARRY-334543]
IC50 [1]: 3.7 µM
[3H]-mitoxantrone accumulation in transfected cells (0.25 and 1.0 μM) [2]: significantly increased intracellular levels of [^3H]-MX in the NCI-H460, NCI-H460/MX20, ABCG2-482-R2, ABCG2-482-G2, and ABCG2-482-T7 cells
[3H]-mitoxantrone accumulation in transfected cells (0.25 and 1.0 μM) [3]: significantly increased intracellular levels of [^3H]-MX in the NCI-H460, NCI-H460/MX20, ABCG2-482-R2, ABCG2-482-G2, and ABCG2-482-T7 cells
